From patent US11548871B2, “Triazole carbamate pyridyl sulfonamides as LPA receptor antagonists and uses thereof” (Gilead Sciences, Inc., priority 2019, dated 2023) come the findings set out here.

SMILES strings stand for the structures.

The target of the test is human LPAR1 (Homo sapiens, UniProt Q92633). Briefly: LPAR1 intracellular calcium mobilization assay (antagonist mode). A general note: Calcium flux is commonly read through the fluorescence of an indicator in the cells.
human LPAR1, sequence (Q92633 whole entry): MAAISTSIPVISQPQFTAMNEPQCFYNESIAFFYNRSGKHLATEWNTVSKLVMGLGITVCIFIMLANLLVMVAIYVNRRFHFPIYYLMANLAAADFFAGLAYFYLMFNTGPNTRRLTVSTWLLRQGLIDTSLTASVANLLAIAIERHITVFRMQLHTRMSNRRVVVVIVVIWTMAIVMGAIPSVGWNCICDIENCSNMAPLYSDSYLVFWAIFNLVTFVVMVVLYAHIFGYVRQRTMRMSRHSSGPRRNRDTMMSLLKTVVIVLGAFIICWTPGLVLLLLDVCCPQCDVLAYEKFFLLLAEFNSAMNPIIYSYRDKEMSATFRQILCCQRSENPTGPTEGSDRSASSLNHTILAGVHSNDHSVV

Method: In vitro LPAR1 activity was measured in an intracellular calcium mobilization assay.
Prior to testing cell media were aspirated from the cells and replaced with 20 μL Calcium Dye Loading Buffer (DiscoverX Calcium NoWash^PLUS Assay Kit cat #90-0091) and 2.5 mM Probenecid (Sigma Aldrich cat #P8761, prepared fresh) in HBSS/20 mM Hepes for 60 min at 37° C.
For agonist dose curves, cells were removed from the incubator after dye loading and 10 μL HBSS/20 mM Hepes including 3× vehicle was added. Cells were incubated for 30 min at room temperature in the dark to equilibrate plate temperatures. An intermediate LPA dilution series was prepared in assay buffer to generate 4× stock. Calcium mobilization was monitored on a FLIPR Tetra (MDS, San Jose, Calif.) for 2 min and 10 μL 4×LPA in HBSS/20 mM Hepes was added to the cells 5 s into the assay.
An intermediate antagonist dilution series was prepared as 3× samples in assay buffer. After dye loading, cells were removed from the incubator and 10 μL 3× antagonist was added. Cells were incubated for 30 min at room temperature in the dark to equilibrate plate temperatures. The final vehicle (DMSO) concentration was 1%. Compound antagonist activities was measured on a FLIPR Tetra. Calcium mobilization was monitored for 2 min and 10 μL EC80 agonist in HBSS/20 mM Hepes was added to the cells 5 s into the assay. Compound activity was analyzed using CBIS data analysis suite (ChemInnovation Software, San Diego, Calif.).

In general, EC50 refers to the midpoint of the concentration-response curve. Take `COc1nc(-c2nnn(C)c2NC(=O)O[C@H](C)c2cccnc2Cl)ccc1NS(C)(=O)=O` [Compound 146, (R)-1-(2-chloropyridin-3-yl)ethyl (4-(6-methoxy-5-(methylsulfonamido)pyridin-2-yl)-1-methyl-1H-1,2,3-triazol-5-yl)carbamate]: the EC50 came to 580 nM. Next, `Cc1nc(-c2nnn(C)c2NC(=O)OC2c3ccccc3CC2F)ccc1NS(C)(=O)=O` (stereo not shown) [Compound 73, 2-fluoro-2,3-dihydro-1H-inden-1-yl (1-methyl-4-(6-methyl-5-(methylsulfonamido)pyridin-2-yl)-1H-1,2,3-triazol-5-yl)carbamate]: 3220 nM; `C[C@@H](OC(=O)Nc1c(-c2cc(F)c(NS(C)(=O)=O)cn2)nnn1C)c1cccnc1Cl` [Compound 158, (R)-1-(2-chloropyridin-3-yl)ethyl (4-(4-fluoro-5-(methylsulfonamido)pyridin-2-yl)-1-methyl-1H-1,2,3-triazol-5-yl)carbamate]: 78.1 nM; `Cc1nc(-c2nnn(C)c2NC(=O)O[C@H](C)c2cccc(F)c2F)ccc1NS(C)(=O)=O` [Compound 87, (R)-1-(2,3-difluorophenyl)ethyl(1-methyl-4-(6-methyl-5-(methylsulfonamido)pyridin-2-yl)-1H-1,2,3-triazol-5-yl)carbamate]: 312 nM. Then `Cc1nc(-c2nnn(C)c2NC(=O)O[C@H](C)c2ccnn2C)ccc1NS(C)(=O)=O` [Compound 135, (R)-1-(1-methyl-1H-pyrazol-5-yl)ethyl (1-methyl-4-(6-methyl-5-(methylsulfonamido)pyridin-2-yl)-1H-1,2,3-triazol-5-yl)carbamate], with 2980 nM.

With `C[C@@H](OC(=O)Nc1c(-c2ccc(NS(C)(=O)=O)c(Cl)n2)nnn1C)c1ccccc1` [Compound 2, (R)-1-phenylethyl (4-(6-chloro-5-(methylsulfonamido)pyridin-2-yl)-1-methyl-1H-1,2,3-triazol-5-yl)carbamate], the EC50 came to 270 nM. Next, `Cc1nc(-c2nnn(C)c2NC(=O)O[C@H](C)CC(C)C)ccc1NS(C)(=O)=O` [Compound 72, (R)-4-methylpentan-2-yl (1-methyl-4-(6-methyl-5-(methylsulfonamido)pyridin-2-yl)-1H-1,2,3-triazol-5-yl)carbamate]: 115 nM; `Cc1nc(-c2nnn(C)c2NC(=O)O[C@H](C)c2cccc(Cl)c2)ccc1NS(C)(=O)=O` [Compound 41, (R)-1-(3-chlorophenyl)ethyl (1-methyl-4-(6-methyl-5-(methylsulfonamido)pyridin-2-yl)-1H-1,2,3-triazol-5-yl)carbamate]: 65 nM. `C[C@@H](OC(=O)Nc1c(-c2ncc(NS(C)(=O)=O)cc2F)nnn1C)c1ccccc1Cl` [Compound 89, (R)-1-(2-chlorophenyl)ethyl(4-(3-fluoro-5-(methylsulfonamido)pyridin-2-yl)-1-methyl-1H-1,2,3-triazol-5-yl)carbamate]: the EC50 came out at 31.4 nM.

Regarding `C[C@@H](OC(=O)Nc1c(-c2ccc(NS(C)(=O)=O)cn2)nnn1C)c1cc(F)ccc1F` [Compound 17, (R)-1-(2,5-difluorophenyl)ethyl (1-methyl-4-(5-(methylsulfonamido)pyridin-2-yl)-1H-1,2,3-triazol-5-yl)carbamate], the EC50 came to 5 nM. In the case of `C[C@@H](OC(=O)Nc1c(-c2ccc(NS(=O)(=O)NC3CC3)cn2)nnn1C)c1cccnc1Cl` [Compound 159, (R)-1-(2-chloropyridin-3-yl)ethyl (4-(5-((N-cyclopropylsulfamoyl)amino)pyridin-2-yl)-1-methyl-1H-1,2,3-triazol-5-yl)carbamate], the EC50 was 240 nM.

With `Cc1ccc(C)c([C@@H](C)OC(=O)Nc2c(-c3ccc(NS(C)(=O)=O)c(C)n3)nnn2C)c1` [Compound 27, (R)-1-(2,5-dimethylphenyl)ethyl (1-methyl-4-(6-methyl-5-(methylsulfonamido)pyridin-2-yl)-1H-1,2,3-triazol-5-yl)carbamate], the EC50 amounted to 57.7 nM. Then `Cc1nc(-c2nnn(C)c2NC(=O)OCCC(C)(C)C)ccc1NS(C)(=O)=O` [Compound 32, 3,3-dimethylbutyl (1-methyl-4-(6-methyl-5-(methylsulfonamido)pyridin-2-yl)-1H-1,2,3-triazol-5-yl)carbamate], with 1690 nM; and `CNc1nc(-c2nnn(C)c2NC(=O)O[C@H](CF)c2ccccc2)ccc1NS(C)(=O)=O` [Compound 155, (S)-2-fluoro-1-phenylethyl (1-methyl-4-(6-(methylamino)-5-(methylsulfonamido)pyridin-2-yl)-1H-1,2,3-triazol-5-yl)carbamate], with 84.7 nM.

Turning to `C[C@@H](OC(=O)Nc1c(-c2ccc(NS(C)(=O)=O)cn2)nnn1C)c1cccnc1Br` [Compound 116, (R)-1-(2-bromopyridin-3-yl)ethyl (1-methyl-4-(5-(methylsulfonamido)pyridin-2-yl)-1H-1,2,3-triazol-5-yl)carbamate], the EC50 was found to be 129 nM. In the case of `Cc1nc(-c2nnn(C)c2NC(=O)OC(C)c2cnc(F)cc2Cl)ccc1NS(C)(=O)=O` (stereo not shown) [Compound 129, 1-(4-chloro-6-fluoropyridin-3-yl)ethyl (1-methyl-4-(6-methyl-5-(methylsulfonamido)pyridin-2-yl)-1H-1,2,3-triazol-5-yl)carbamate], the EC50 came to 271 nM. Next, `Cc1nc(-c2nnn(C)c2NC(=O)O[C@H](C)c2ccccc2Cl)ccc1NS(C)(=O)=O` [Compound 11, (R)-1-(2-chlorophenyl)ethyl (1-methyl-4-(6-methyl-5-(methylsulfonamido)pyridin-2-yl)-1H-1,2,3-triazol-5-yl)carbamate]: 23.8 nM. As to `Cc1nc(-c2nnn(C)c2NC(=O)OCCCC(C)(C)C)ccc1NS(C)(=O)=O` [Compound 30, 4,4-dimethylpentyl (1-methyl-4-(6-methyl-5-(methylsulfonamido)pyridin-2-yl)-1H-1,2,3-triazol-5-yl)carbamate], the EC50 turned out to be 667 nM. Then `Cc1nc(-c2nnn(C)c2NC(=O)OCc2cccc(Cl)c2)ccc1NS(C)(=O)=O` [Compound 39, 3-chlorobenzyl (1-methyl-4-(6-methyl-5-(methylsulfonamido)pyridin-2-yl)-1H-1,2,3-triazol-5-yl)carbamate], with 89.5 nM. In the case of `CCn1nnc(-c2ccc(NS(C)(=O)=O)c(C)n2)c1NC(=O)O[C@H](C)c1cccnc1Cl` [Compound 157, (R)-1-(2-chloropyridin-3-yl)ethyl (1-ethyl-4-(6-methyl-5-(methylsulfonamido)pyridin-2-yl)-1H-1,2,3-triazol-5-yl)carbamate], the half-maximal effective concentration (EC50) was determined as 374 nM. Regarding `COC1CN(S(=O)(=O)Nc2ccc(-c3nnn(C)c3NC(=O)O[C@H](C)c3cccc(F)c3)nc2C)C1` [Compound 108, (R)-1-(3-fluoro-phenyl)ethyl (4-(5-((3-methoxy-azetidine)-1-sulfonamido)-6-methylpyridin-2-yl)-1-methyl-1H-1,2,3-triazol-5-yl)carbamate], the EC50 turned out to be 10000 nM.

Take `Cc1nc(-c2nnn(C)c2NC(=O)O[C@H](CCl)c2ccccc2)ccc1NS(C)(=O)=O` [Compound 49, (S)-2-chloro-1-phenylethyl (1-methyl-4-(6-methyl-5-(methylsulfonamido)pyridin-2-yl)-1H-1,2,3-triazol-5-yl)carbamate]: the EC50 turned out to be 203 nM.
